Results: patent publication US9468642B2, “Imidazopyrazines” (BAYER INTELLECTUAL PROPERTY GMBH, priority 2011, dated 2016)

Molecular target: human kinase Mps-1 (Homo sapiens (Human), UniProt P33981)
Assay: Mps-1 Kinase Assay (TR-FRET)
Type: biochemical
Settings: N-terminally GST-tagged human full length recombinant Mps-1; 10 μM ATP; 1 μM peptide substrate; 60 min at 22° C.; read-out: Mps1 IC50
Method: The human kinase Mps-1 phosphorylates a biotinylated substrate peptide. Detection of the phosphorylated product is achieved by time-resolved fluorescence resonance energy transfer (TR-FRET) from Europium-labelled anti-phospho-Serine/Threonine antibody as donor to streptavidin labelled with cross-linked allophycocyanin (SA-XLent) as acceptor. Compounds are tested for their inhibition of the kinase activity.
N-terminally GST-tagged human full length recombinant Mps-1 kinase (purchased from Invitrogen, Karslruhe, Germany, cat. no PV4071) was used. As substrate for the kinase reaction a biotinylated peptide of the amino-acid sequence […] (C-terminus in amide form, purchased from Biosynthan GmbH, Berlin) was used.
The concentration of Mps-1 in the assay was adjusted to the activity of the enzyme lot and was chosen appropriate to have the assay in the linear range, typical enzyme concentrations were in the range of about 1 nM (final conc. in the 5 μl assay volume).
The resulting mixture was incubated 1 h at 22° C. to allow the binding of the phosphorylated peptide to the anti-phospho(Ser/Thr)-Europium-antibody. Subsequently the amount of phosphorylated substrate was evaluated by measurement of the resonance energy transfer from the Europium-labelled anti-phospho(Ser/Thr) antibody to the Streptavidin-XLent.

Chain of human kinase Mps-1 (P33981 whole entry): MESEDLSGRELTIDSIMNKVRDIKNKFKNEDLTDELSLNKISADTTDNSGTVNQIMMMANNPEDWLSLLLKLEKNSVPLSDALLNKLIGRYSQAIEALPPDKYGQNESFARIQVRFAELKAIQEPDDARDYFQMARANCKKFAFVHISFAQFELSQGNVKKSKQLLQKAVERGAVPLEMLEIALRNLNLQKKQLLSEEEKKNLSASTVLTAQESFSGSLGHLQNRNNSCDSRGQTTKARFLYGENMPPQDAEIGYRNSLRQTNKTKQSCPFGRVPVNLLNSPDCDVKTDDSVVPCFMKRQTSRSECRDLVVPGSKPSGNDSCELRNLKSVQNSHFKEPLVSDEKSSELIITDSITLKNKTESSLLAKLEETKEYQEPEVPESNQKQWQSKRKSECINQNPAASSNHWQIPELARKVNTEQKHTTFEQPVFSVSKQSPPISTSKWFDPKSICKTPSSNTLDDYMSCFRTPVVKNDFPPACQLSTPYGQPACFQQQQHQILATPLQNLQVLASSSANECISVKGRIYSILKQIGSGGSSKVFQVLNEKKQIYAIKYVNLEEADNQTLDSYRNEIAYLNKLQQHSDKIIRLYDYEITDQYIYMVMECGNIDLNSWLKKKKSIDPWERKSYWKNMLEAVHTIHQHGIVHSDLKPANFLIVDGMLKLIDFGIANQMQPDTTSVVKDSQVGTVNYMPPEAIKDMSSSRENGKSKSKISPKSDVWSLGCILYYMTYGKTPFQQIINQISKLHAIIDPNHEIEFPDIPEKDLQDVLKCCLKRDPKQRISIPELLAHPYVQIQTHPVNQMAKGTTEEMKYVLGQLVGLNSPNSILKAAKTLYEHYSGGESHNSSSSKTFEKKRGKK

| IC50 [nM] | SMILES |
| --- | --- |
| 6 | CS(=O)(=O)c1nc(-c2ccccc2)cn2c(-c3ccc(C(=O)NC4CC4)cc3)cnc12 (racemic) [Example 3A, N-Cyclopropyl-4-[8-(methylsulfonyl)-6-phenylimidazo[1,2-a]pyrazin-3-yl]benzamide] |
| 8.9 | C[S+]([O-])c1nc(-c2ccccc2)cn2c(-c3ccc(C(=O)NC4CC4)cc3)cnc12 (racemic) [Example 3B, (RS)—N-cyclopropyl-4-[8-(methylsulfinyl)-6-phenylimidazo[1,2-a]pyrazin-3-yl]benzamide] |
| 20 | CCC[S+]([O-])c1nc(-c2ccccc2)cn2c(-c3ccc(C(=O)NC4CC4)cc3)cnc12 (racemic) [Example 7A, (RS) N-Cyclopropyl-4-[6-phenyl-8-(propylsulfinyl)imidazo[1,2-a]pyrazin-3-yl]benzamide] |
| 8 | O=C(NC1CC1)c1ccc(-c2cnc3c(SCC4CCCO4)nc(-c4ccccc4)cn23)cc1 (racemic) [Example 12, (RS) N-Cyclopropyl-4-{6-phenyl-8-[(tetrahydrofuran-2-ylmethyl)sulfanyl]imidazo[1,2-a]pyrazin-3-yl}benzamide] |
| 5.2 | CS(=O)(=NC(=O)C(F)(F)F)c1nc(-c2ccccc2)cn2c(-c3ccc(C(=O)NC4CC4)cc3)cnc12 (racemic) [Example 15, (RS) N-cyclopropyl-4-{8-[S-methyl-N-(trifluoroacetyl)sulfonimidoyl]-6-phenylimidazo[1,2-a]pyrazin-3-yl}benzamide] |
| 12.7 | CC(C)C[S+]([O-])c1nc(-c2ccccc2)cn2c(-c3ccc(C(=O)NC4CC4)cc3)cnc12 (racemic) [Example 22A, (RS) N-cyclopropyl-4-[8-(isobutylsulfinyl)-6-phenylimidazo[1,2-a]pyrazin-3-yl]benzamide] |
| 14.5 | CC(C)CC[S+]([O-])c1nc(-c2ccccc2)cn2c(-c3ccc(C(=O)NC4CC4)cc3)cnc12 (racemic) [Example 24A, (RS) N-cyclopropyl-4-{8-[(3-methylbutyl)sulfinyl]-6-phenylimidazo[1,2-a]pyrazin-3-yl}benzamide] |
| 6.2 | O=C(NC1CC1)c1ccc(-c2cnc3c([S+]([O-])CC(F)(F)F)nc(-c4ccccc4)cn23)cc1 (racemic) [Example 26A, (RS) N-cyclopropyl-4-{6-phenyl-8-[(2,2,2-trifluoroethyl)sulfinyl]imidazo[1,2-a]pyrazin-3-yl}benzamide] |
| 607 | CSc1nc(Br)cn2c(-c3ccc(C(=O)NC4CC4)cc3)cnc12 [Example 1, 4-[6-Bromo-8-(methylsulfanyl)imidazo[1,2-a]pyrazin-3-yl]-N-cyclopropylbenzamide] |
| 22.2 | CCSc1nc(-c2ccccc2)cn2c(-c3ccc(C(=O)NC4CC4)cc3)cnc12 [Example 4, N-Cyclopropyl-4-[8-(ethylsulfanyl)-6-phenylimidazo[1,2-a]pyrazin-3-yl]benzamide] |
| 11 | CCCSc1nc(-c2ccccc2)cn2c(-c3ccc(C(=O)NC4CC4)cc3)cnc12 [Example 6, N-Cyclopropyl-4-[6-phenyl-8-(propylsulfanyl)imidazo[1,2-a]pyrazin-3-yl]benzamide] |
| 10.1 | CCCS(=O)(=O)c1nc(-c2ccccc2)cn2c(-c3ccc(C(=O)NC4CC4)cc3)cnc12 [Example 7B, N-Cyclopropyl-4-[6-phenyl-8-(propylsulfonyl)imidazo[1,2-a]pyrazin-3-yl]benzamide] |
| 26.3 | CCCCSc1nc(-c2ccccc2)cn2c(-c3ccc(C(=O)NC4CC4)cc3)cnc12 [Example 8, 4-[8-(Butylsulfanyl)-6-phenylimidazo[1,2-a]pyrazin-3-yl]-N-cyclopropylbenzamide] |
| 85.1 | CC(C)(C)CCSc1nc(-c2ccccc2)cn2c(-c3ccc(C(=O)NC4CC4)cc3)cnc12 [Example 10, N-Cyclopropyl-4-{8-[(3,3-dimethylbutyl)sulfanyl]-6-phenylimidazo[1,2-a]pyrazin-3-yl}benzamide] |
| 67.6 | CC(C)(C)OC(=O)NCCSc1nc(-c2ccccc2)cn2c(-c3ccc(C(=O)NC4CC4)cc3)cnc12 [Example 16, tert-butyl [2-({3-[4-(cyclopropylcarbamoyl)phenyl]-6-phenylimidazo[1,2-a]pyrazin-8-yl}sulfanyl)ethyl]carbamate] |
| 79.8 | CCCCCSc1nc(-c2ccccc2)cn2c(-c3ccc(C(=O)NC4CC4)cc3)cnc12 [Example 17, N-cyclopropyl-4-[8-(pentylsulfanyl)-6-phenylimidazo[1,2-a]pyrazin-3-yl]benzamide] |
| 7.5 | CCCCCS(=O)(=O)c1nc(-c2ccccc2)cn2c(-c3ccc(C(=O)NC4CC4)cc3)cnc12 [Example 18B, N-cyclopropyl-4-[8-(pentylsulfonyl)-6-phenylimidazo[1,2-a]pyrazin-3-yl]benzamide] |
| 22.3 | CC(C)Sc1nc(-c2ccccc2)cn2c(-c3ccc(C(=O)NC4CC4)cc3)cnc12 [Example 19, N-cyclopropyl-4-[8-(isopropylsulfanyl)-6-phenylimidazo[1,2-a]pyrazin-3-yl]benzamide] |
| 13.9 | CC(C)S(=O)(=O)c1nc(-c2ccccc2)cn2c(-c3ccc(C(=O)NC4CC4)cc3)cnc12 [Example 20B, N-cyclopropyl-4-[8-(isopropylsulfonyl)-6-phenylimidazo[1,2-a]pyrazin-3-yl]benzamide] |
| 13.2 | CC(C)CSc1nc(-c2ccccc2)cn2c(-c3ccc(C(=O)NC4CC4)cc3)cnc12 [Example 21, N-cyclopropyl-4-[8-(isobutylsulfanyl)-6-phenylimidazo[1,2-a]pyrazin-3-yl]benzamide] |
| 6.4 | CC(C)CS(=O)(=O)c1nc(-c2ccccc2)cn2c(-c3ccc(C(=O)NC4CC4)cc3)cnc12 [Example 22B, N-cyclopropyl-4-[8-(isobutylsulfonyl)-6-phenylimidazo[1,2-a]pyrazin-3-yl]benzamide] |
| 25.2 | CC(C)CCSc1nc(-c2ccccc2)cn2c(-c3ccc(C(=O)NC4CC4)cc3)cnc12 [Example 23, N-cyclopropyl-4-{8-[(3-methylbutyl)sulfanyl]-6-phenylimidazo[1,2-a]pyrazin-3-yl}benzamide] |
| 6.5 | CC(C)CCS(=O)(=O)c1nc(-c2ccccc2)cn2c(-c3ccc(C(=O)NC4CC4)cc3)cnc12 [Example 24B, N-cyclopropyl-4-{8-[(3-methylbutyl)sulfonyl]-6-phenylimidazo[1,2-a]pyrazin-3-yl}benzamide] |
| 26.3 | O=C(NC1CC1)c1ccc(-c2cnc3c(SCC(F)(F)F)nc(-c4ccccc4)cn23)cc1 [Example 25, N-cyclopropyl-4-{6-phenyl-8-[(2,2,2-trifluoroethyl)sulfanyl]imidazo[1,2-a]pyrazin-3-yl}benzamide] |
| 8.1 | O=C(NC1CC1)c1ccc(-c2cnc3c(S(=O)(=O)CC(F)(F)F)nc(-c4ccccc4)cn23)cc1 [Example 26B, N-cyclopropyl-4-{6-phenyl-8-[(2,2,2-trifluoroethyl)sulfonyl]imidazo[1,2-a]pyrazin-3-yl}benzamide] |
| 40.8 | O=C(NC1CC1)c1ccc(-c2cnc3c(SCc4ccco4)nc(-c4ccccc4)cn23)cc1 [Example 27, N-cyclopropyl-4-{8-[(2-furylmethyl)sulfanyl]-6-phenylimidazo[1,2-a]pyrazin-3-yl}benzamide] |
| 544 | CSc1nc(-c2ccccc2)cn2c(-c3ccc(-c4cnc(C5CC5)[nH]4)cc3)cnc12 [Example 29, 3-[4-(2-cyclopropyl-1H-imidazol-5-yl)phenyl]-8-(methylsulfanyl)-6-phenylimidazo[1,2-a]pyrazine] |
| 3100 | C=Cc1ccc(-c2cn3c(-c4ccc(-c5cnc(C6CC6)[nH]5)cc4)cnc3c(SC)n2)cc1 [Example 30, 3-[4-(2-cyclopropyl-1H-imidazol-5-yl)phenyl]-8-(methylsulfanyl)-6-(4-vinylphenyl)imidazo[1,2-a]pyrazine] |
| 125 | CSc1nc(-c2ccncc2)cn2c(-c3ccc(-c4cnc(C5CC5)[nH]4)cc3)cnc12 [Example 31, 3-[4-(2-cyclopropyl-1H-imidazol-5-yl)phenyl]-8-(methylsulfanyl)-6-(pyridin-4-yl)imidazo[1,2-a]pyrazine] |
| 19.9 | CC(=O)NCCSc1nc(-c2ccccc2)cn2c(-c3ccc(C(=O)NC4CC4)cc3)cnc12 [Example 33] |

| SMILES | IC50 [nM] |
| --- | --- |
| CCS(=O)(=O)c1nc(-c2ccccc2)cn2c(-c3ccc(C(=O)NC4CC4)cc3)cnc12 [Example 5B, N-Cyclopropyl-4-[8-(ethylsulfonyl)-6-phenylimidazo[1,2-a]pyrazin-3-yl]benzamide] | 7.7 |
| CCCCS(=O)(=O)c1nc(-c2ccccc2)cn2c(-c3ccc(C(=O)NC4CC4)cc3)cnc12 [Example 9B, 4-[8-(Butylsulfonyl)-6-phenylimidazo[1,2-a]pyrazin-3-yl]-N-cyclopropylbenzamide] | 14 |
| CC(C)(C)CCS(=O)(=O)c1nc(-c2ccccc2)cn2c(-c3ccc(C(=O)NC4CC4)cc3)cnc12 [Example 11B, N-Cyclopropyl-4-{8-[(3,3-dimethylbutyl)sulfonyl]-6-phenylimidazo[1,2-a]pyrazin-3-yl}benzamide] | 4.3 |
| O=C(NC1CC1)c1ccc(-c2cnc3c(S(=O)(=O)Cc4ccco4)nc(-c4ccccc4)cn23)cc1 [Example 28B, N-cyclopropyl-4-{8-[(2-furylmethyl)sulfonyl]-6-phenylimidazo[1,2-a]pyrazin-3-yl}benzamide] | 7.1 |
